Columns and labels:
[1] = tested on: VEGF-induced vascular leakage; settings: rabbit model (Edelman 2005); cited from earlier work
[2] = monkey (Chang-Lin 2011); cited from earlier work
[3] = ENVRES-PRE-002 ocular pharmacokinetics after intravitreal injection; format: in vivo, New Zealand White rabbits; settings: rabbit; for Cmax: male, New Zealand White, topical or ocular
Description: New Zealand White rabbits, 2 males/group/terminal time point, were administered a single bilateral intravitreal injection of either ENV1105 or OZURDEX and were followed for up 1, 2, 3, and/or 5 months. Animals were examined via slit lamp ophthalmoscopy and indirect ophthalmoscopy.
Ocular tissues, including aqueous humor, vitreous humor, and retina, were processed and analyzed for dexamethasone or FA by two of three methods. Dexamethasone present in ocular tissue samples was quantified by ELISA and HPLC. FA present in ocular tissues was quantified by HPLC and mass spectrometry. Prior to analysis, implants or particles were separated from vitreous humor samples via manual removal or centrifugation. Vitreous humor and aqueous humor tissue samples were analyzed as received or diluted with ACN for LC MS/MS or PBS for ELISA.
Animals were followed for up to 3 months, with ocular matrices (retina/choroid, vitreous humor and aqueous humor) collected to determine ocular pharmacokinetics at Months 2 and 3. Ocular exams were conducted on Days 2, 3, 6, 10, weekly through Day 28, and then biweekly through Month 3 to determine tolerability. A summary of the study designed is provided below in Table 10.

Row | Cmax ([3]; 0.27 mg, aqueous humor, Group 4 (ENV-1R-0119-7-5, 6 implants, 270 μg/eye)) [ng/mL] | Cmax ([3]; 0.27 mg, retina/choroid, Group 4 (ENV-1R-0119-7-5, 6 implants, 270 μg/eye)) [ng/g] | Cmax ([3]; 0.27 mg, vitreous humor, Group 4 (ENV-1R-0119-7-5, 6 implants, 270 μg/eye)) [ng/mL] | day on which concentration peaked ([3]; Group 5 (ENV-1R-0119-33-7), retina/choroid and vitreous humor) [days] | Cmax ([3]; 0.0407 mg, retina/choroid, Group 5 (ENV-1R-0119-33-7, 40.7 μg/eye)) [ng/g] | Cmax ([3]; 0.0407 mg, vitreous humor, Group 5 (ENV-1R-0119-33-7, 40.7 μg/eye)) [ng/g] | SMILES | efficacy in VEGF-induced vascular leakage [1] | time dexamethasone was detected in the retina and vitreous humor [2] [months]
1 | 5.9 | 28100 | 3080 |  |  |  | C[C@@H]1C[C@H]2[C@@H]3CCC4=CC(=O)C=C[C@]4(C)[C@@]3(F)[C@@H](O)C[C@]2(C)[C@@]1(O)C(=O)CO [Dexamethasone, (8S,9R,10S,11S,13S,14S,16R,17R)-9-Fluoro-11,17-dihydroxy-17-(2-hydroxyacetyl)-10,13,16-trimethyl-6,7,8,9,10,11,12,13,14,15,16,17-dodecahydro-3H-cyclopenta[a]phenanthren-3-one] | effective | 6
2 |  |  |  | 84 | 3950 | 298 | CC1(C)O[C@@H]2C[C@H]3[C@@H]4C[C@H](F)C5=CC(=O)C=C[C@]5(C)[C@@]4(F)[C@@H](O)C[C@]3(C)[C@]2(C(=O)CO)O1 [fluocinolone acetonide, (1S,2S,4R,8S,9S,11S,12R,13S,19S)-12,19-difluoro-11-hydroxy-8-(2-hydroxyacetyl)-6,6,9,13-tetramethyl-5,7-dioxapentacyclo[10.8.0.0^2,9.0^4.8.0 ^13,18]icosa-14,17-dien-16-one] |  | 

Reference: patent publication US11116776B2, “Intravitreal drug delivery systems for the treatment of ocular conditions” (Aerie Pharmaceuticals, Inc., priority 2015, dated 2021)
